Tests used:
Galectin-1 = Galectin-1 (Homo sapiens, UniProt P09382); details: T. Delaine 2016; read-out: affinity to Galectin-1; cited from earlier work
Gal-1 = Gal-1 (Homo sapiens, UniProt P09382); experiment: Fluorescence anisotropy assay, compound as inhibitor of galectin / fluorescein tagged saccharide probe interaction; assay type: binding
Procedure: (§1) The affinity of Example 1-29 for galectins were determined by a fluorescence anisotropy assay where the compound was used as an inhibitor of the interaction between galectin and a fluorescein tagged saccharide probe as described Sörme, P., Kahl-Knutsson, B., Huflejt, M., Nilsson, U. J., and Leffler H. (2004) Fluorescence polarization as an analytical tool to evaluate galectin-ligand interactions. Anal. Biochem. 334: 36-47, (Sörme et al., 2004) and Monovalent interactions of Galectin-1 By Salomonsson, Emma; Larumbe, Amaia; Tejler, Johan; Tullberg, Erik; Rydberg, Hanna; Sundin, Anders; Khabut, Areej; Frejd, Torbjorn; Lobsanov, Yuri D.; Rini, James M.; et al, From Biochemistry (2010), 49(44), 9518-9532, (Salomonsson et al., 2010).

Gal-3 = Gal-3 (Homo sapiens, UniProt P17931); experiment: as above; assay type: binding
Procedure: as §1

galectins = details: cited from earlier work

Sequence of Gal-3 (P17931 whole entry): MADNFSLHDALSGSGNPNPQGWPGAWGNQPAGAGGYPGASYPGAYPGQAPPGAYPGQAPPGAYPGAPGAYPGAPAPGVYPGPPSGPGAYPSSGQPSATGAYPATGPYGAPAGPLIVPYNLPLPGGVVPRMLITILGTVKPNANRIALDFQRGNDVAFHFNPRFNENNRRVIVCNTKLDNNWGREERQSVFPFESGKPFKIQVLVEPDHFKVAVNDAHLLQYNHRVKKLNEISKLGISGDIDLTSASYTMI
Sequence of Gal-1 (P09382 whole entry): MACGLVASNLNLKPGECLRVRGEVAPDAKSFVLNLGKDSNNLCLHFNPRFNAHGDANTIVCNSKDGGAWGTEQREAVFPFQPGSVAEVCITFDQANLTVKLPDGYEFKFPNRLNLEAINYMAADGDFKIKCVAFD
Sequence of Galectin-1 (P09382 whole entry, species assumed): as the sequence (P09382 whole entry) above

Row | SMILES | Kd (Galectin-1) [µM] | Kd (Gal-1) [µM] | Kd (Gal-3) [µM] | affinity relative to lactose, times lower (galectins; compared with lactose) | Kd (galectins; Leffler 2001, Leffler et al. 2004, read-out: Kd, all galectins) [µM]
1 | OCC1O[C@@H](SC2O[C@H](CO)C(O)C(n3cc(-c4ccsc4)nn3)[C@H]2O)C(O)C(n2cc(-c3ccsc3)nn2)[C@H]1O (stereo partly shown) | < 0.01 |  |  |  | 
2 | Cc1nc2ccc(-n3cnnc3[C@@H]3O[C@H](CO)[C@H](O)[C@H](n4cc(-c5nc(Cl)cs5)nn4)[C@H]3O)cc2s1 [Example 1, 6-{3-{3-[4-(4-Chlorothiazol-2-yl)-1H-1,2,3-triazol-1-yl]-3-deoxy-β-D-galactopyranosyl}-4H-1,2,4-triazol-4-yl}-2-methylbenzothiazole] |  | 0.75 | 0.15 |  | 
3 | Cc1nc2ccc(-n3cnnc3[C@@H]3O[C@H](CO)[C@H](O)[C@H](n4cc(-c5csc(N)n5)nn4)[C@H]3O)cc2s1 [Example 6, 6-{3-{3-[4-(2-Aminothiazol-4-yl)-1H-1,2,3-triazol-1-yl]-3-deoxy-β-D-galactopyranosyl}-4H-1,2,4-triazol-4-yl}-2-methylbenzothiazole] |  | 1.6 | 1.9 |  | 
4 | Cc1nc2ccc(-n3cnnc3[C@@H]3O[C@H](CO)[C@H](O)[C@H](n4cc(-c5csc(O)n5)nn4)[C@H]3O)cc2s1 [Example 8, 6-{3-{3-Deoxy-3-[4-(2-hydroxythiazol-4-yl)-1H-1,2,3-triazol-1-yl]-β-D-galactopyranosyl}-4H-1,2,4-triazol-4-yl}-2-methylbenzothiazole] |  | 0.32 | 1.9 |  | 
5 | Cc1nnc([C@@H]2O[C@H](CO)[C@H](O)[C@H](n3cc(-c4nc(Cl)cs4)nn3)[C@H]2O)n1-c1cc(Cl)ccc1C(F)(F)F [Example 9, 1-{3-{3-[4-(4-Chlorothiazol-2-yl)-1H-1,2,3-triazol-1-yl]-3-deoxy-β-D-galactopyranosyl}-5-methyl-4H-1,2,4-triazol-4-yl}-5-chloro-2-(trifluoromethyl)benzene] |  | 0.29 | 0.041 |  | 
6 | Cc1nc([C@@H]2O[C@H](CO)[C@H](O)[C@H](n3cc(-c4nccs4)nn3)[C@H]2O)n(-c2ccc3nc(C)sc3c2)n1 [Example 10, 6-{5-{3-Deoxy-3-[4-(2-thiazolyl)-1H-1,2,3-triazol-1-yl]β-D-galactopyranosyl}-3-methyl-1H-1,2,4-triazol-1-yl}-2-methylbenzothiazole] |  | 5.2 | 2.3 |  | 
7 | Cc1csc(-c2cn([C@H]3[C@@H](O)[C@@H](CO)O[C@@H](c4nnc(C)n4-c4cc(Cl)ccc4C(F)(F)F)[C@@H]3O)nn2)n1 [Example 11, 5-Chloro-1-{3-{3-deoxy-3-[4-(4-methylthiazol-2-yl)-1H-1,2,3-triazol-1-yl]-β-D-galactopyranosyl}-5-methyl-4H-1,2,4-triazol-4-yl}-2-(trifluoromethyl)benzene] |  | 2.1 | 0.7 |  | 
8 | Cc1nnc([C@@H]2O[C@H](CO)[C@H](O)[C@H](n3cc(-c4csc(O)n4)nn3)[C@H]2O)n1-c1cc(Cl)ccc1C(F)(F)F [Example 12, 5-Chloro-1-{3-{3-deoxy-3-[4-(2-hydroxythiazol-4-yl)-1H-1,2,3-triazol-1-yl]β-D-galactopyranosyl}-5-methyl-4H-1,2,4-triazol-4-yl}-2-(trifluoromethyl)benzene] |  | 0.19 | 0.52 |  | 
9 | Cc1nc([C@@H]2O[C@H](CO)[C@H](O)[C@H](n3cc(-c4csc(C)n4)nn3)[C@H]2O)n(-c2ccc3nc(C)sc3c2)n1 [Example 13, 6-{5-{3-Deoxy-3-[4-(2-methylthiazol-4-yl)-1H-1,2,3-triazol-1-yl]β-D-galactopyranosyl}-3-methyl-1H-1,2,4-triazol-1-yl}-2-methylbenzothiazole] |  | 9 | 1.8 |  | 
10 | Cc1nc([C@@H]2O[C@H](CO)[C@H](O)[C@H](n3cc(-c4cncs4)nn3)[C@H]2O)n(-c2ccc3nc(C)sc3c2)n1 [Example 14, 6-{5-{3-Deoxy-3-[4-(5-thiazolyl)-1H-1,2,3-triazol-1-yl]β-D-galactopyranosyl}-3-methyl-1H-1,2,4-triazol-1-yl}-2-methylbenzothiazole] |  | 19.5 | 2.3 |  | 
11 | Cc1nc([C@@H]2OC(CO)[C@H](O)C(n3cc(-c4csc(N)n4)nn3)C2O)n(-c2cc(Cl)ccc2C(F)(F)F)n1 (stereo partly shown) [Example 15] |  | 1.5 | 1.3 |  | 
12 | Cc1nc([C@@H]2OC(CO)[C@H](O)C(n3cc(-c4nc(Cl)cs4)nn3)C2O)n(-c2cc(Cl)ccc2C(F)(F)F)n1 (stereo partly shown) [Example 16] |  | 0.9 | 0.039 |  | 
13 | CO[C@@H]1[C@@H](n2cc(-c3nc(Cl)cs3)nn2)[C@@H](O)[C@@H](CO)O[C@H]1c1nnc(C)n1-c1cc(Cl)ccc1C(F)(F)F [Example 17, 1-{3-{3-[4-(4-Chlorothiazol-2-yl)-1H-1,2,3-triazol-1-yl]-3-deoxy-2-O-methyl-β-D-galactopyranosyl}-5-methyl-4H-1,2,4-triazol-4-yl}-5-chloro-2-(trifluoromethyl)benzene] |  | 0.52 | 0.026 |  | 
14 | Cc1nc([C@@H]2O[C@H](CO)[C@H](O)[C@H](n3cc(-c4nc(Cl)cs4)nn3)[C@H]2O)n(-c2cc(Cl)cnc2C2CC2)n1 [Example 18, 3-{5-{3-[4-(4-Chlorothiazol-2-yl)-1H-1,2,3-triazol-1-yl]-3-deoxy-β-D-galactopyranosyl}-3-methyl-1H-1,2,4-triazol-1-yl}-5-chloro-2-cyclopropylpyridine] |  | 0.66 | 0.13 |  | 
15 | Cc1nnc([C@@H]2O[C@H](CO)[C@H](O)[C@H](n3cc(-c4csc(N)n4)nn3)[C@H]2O)n1-c1cc(Cl)ccc1C(F)(F)F [Example 19, 1-{3-{3-[4-(2-Aminothiazol-4-yl)-1H-1,2,3-triazol-1-yl]-3-deoxy-β-D-galactopyranosyl}-5-methyl-4H-1,2,4-triazol-4-yl}-5-chloro-2-(trifluoromethyl)benzene] |  | 0.73 | 0.82 |  | 
16 | Cc1nnc([C@@H]2O[C@H](CO)[C@H](O)[C@H](n3cc(-c4nccs4)nn3)[C@H]2O)n1-c1cc(Cl)ccc1C(F)(F)F [Example 20, 5-Chloro-1-{3-{3-deoxy-3-[4-(2-thiazolyl)-1H-1,2,3-triazol-1-yl]β-D-galactopyranosyl}-5-methyl-4H-1,2,4-triazol-4-yl}-2-(trifluoromethyl)benzene] |  | 0.69 | 0.15 |  | 
17 | Cc1nc2ccc(-n3cnnc3[C@@H]3O[C@H](CO)[C@H](O)[C@H](n4cc(-c5nccs5)nn4)[C@H]3O)cc2s1 [Example 21, 6-{3-{3-Deoxy-3-[4-(2-thiazolyl)-1H-1,2,3-triazol-1-yl]-β-D-galactopyranosyl}-4H-1,2,4-triazol-4-yl}-2-methylbenzothiazole] |  | 3 | 1.2 |  | 
18 | Cc1csc(-c2cn([C@H]3[C@@H](O)[C@@H](CO)O[C@@H](c4nncn4-c4ccc5nc(C)sc5c4)[C@@H]3O)nn2)n1 [Example 22, 6-{3-{3-Deoxy-3-[4-(4-methylthiazol-2-yl)-1H-1,2,3-triazol-1-yl]-β-D-galactopyranosyl}-4H-1,2,4-triazol-4-yl}-2-methylbenzothiazole] |  | 2.4 | 1.8 |  | 
19 | Cc1nc([C@@H]2O[C@H](CO)[C@H](O)[C@H](n3cc(-c4nc(Cl)cs4)nn3)[C@H]2O)n(-c2ccc3nc(C)sc3c2)n1 [Example 23, 6-{5-{3-[4-(4-Chlorothiazol-2-yl)-1H-1,2,3-triazol-1-yl]-3-deoxy-β-D-galactopyranosyl}-3-methyl-1H-1,2,4-triazol-1-yl}-2-methylbenzothiazole] |  | 2.1 | 0.14 |  | 
20 | Cc1nc([C@@H]2O[C@H](CO)[C@H](O)[C@H](n3cc(-c4csc(N)n4)nn3)[C@H]2O)n(-c2ccc3nc(C)sc3c2)n1 [Example 24, 6-{5-{3-[4-(2-Aminothiazol-4-yl)-1H-1,2,3-triazol-1-yl]-3-deoxy-β-D-galactopyranosyl}-3-methyl-1H-1,2,4-triazol-1-yl}-2-methylbenzothiazole] |  | 3.2 | 2.6 |  | 
21 | CO[C@@H]1[C@@H](n2cc(-c3nc(Cl)cs3)nn2)[C@@H](O)[C@@H](CO)O[C@H]1c1nnc(C)n1-c1ccc2nc(C)sc2c1 [Example 25, 6-{3-{3-[4-(4-Chlorothiazol-2-yl)-1H-1,2,3-triazol-1-yl]-3-deoxy-2-O-methyl-β-D-galactopyranosyl}-5-methyl-4H-1,2,4-triazol-4-yl}-2-methylbenzothiazole] |  | 0.34 | 0.07 |  | 
22 | Cc1nc2ccc(-n3c(C)nnc3[C@@H]3O[C@H](CO)[C@H](O)[C@H](n4cc(-c5nc(Cl)cs5)nn4)[C@H]3O)cc2s1 [Example 26, 6-{3-{3-[4-(4-Chlorothiazol-2-yl)-1H-1,2,3-triazol-1-yl]-3-deoxy-β-D-galactopyranosyl}-5-methyl-4H-1,2,4-triazol-4-yl}-2-methylbenzothiazole] |  | 0.59 | 0.065 |  | 
23 | Cc1nnc([C@@H]2OC(CO)[C@H](O)C(n3cc(-c4nc(Cl)cs4)nn3)C2O)n1-c1ccc2ncn(C)c2c1 (stereo partly drawn) [Example 27, 5-{3-{3-[4-(4-Chlorothiazol-2-yl)-1H-1,2,3-triazol-1-yl]-3-deoxy-β-D-galactopyranosyl}-5-methyl-4H-1,2,4-triazol-4-yl}-N-3-methylbenzimidazole] |  | 2.6 | 0.036 |  | 
24 | Cc1nc2ccc(-n3nccc3[C@@H]3OC(CO)[C@H](O)C(n4cc(-c5nc(Cl)cs5)nn4)C3O)cc2s1 (stereo partly shown) [Example 29] |  | 0.033 | 0.6 |  | 
25 | O=C[C@H](O)[C@@H](O)[C@@H](O)[C@H](O)CO [Galactose, D-galactose] |  |  |  | 50-100 times lower | 
26 | OC[C@H]1O[C@@H](O[C@H]2[C@H](O)[C@@H](O)C(O)O[C@@H]2CO)[C@H](O)[C@@H](O)[C@H]1O (stereo partly shown) [lactose] |  |  |  |  | 100 to 1000
